Measured values taken from US9840498B2, “Substituted quinazolin-4-one derivatives” (NOVARTIS AG, priority 2013, dated 2017).

Biological target: PI 3-Kinase Gamma (Homo sapiens (Human), UniProt P48736)
Assay: Cellular U937 AKT assay for PI 3-kinase gamma
Type: cell-based
Settings: U937 cells, MIP1α-stimulated AKT phosphorylation, read-out: Cell PI3K gamma IC50
Experimental: The U937 monocyte cell line is maintained in a basal medium of RPMI 1640 supplemented with 10% heat inactivated FCS, 100 U/ml Penicillin, 100 ug/ml streptomycin and 2 mM L-glutamine (Invitrogen). U937 suspension culture is maintained by seeding cells at a density of 0.125×10^6 cells per ml in fresh medium every three or four days. Cells are incubated at 37° C., 5% CO2. […] Before beginning the cell manipulations described below, the MSD (Meso Scale Discovery) assay plate is blocked by addition of 150 ul/well blocking buffer supplied and incubated with shaking for a minimum of one hour at room temperature. All steps of the assay must be performed quickly, with accurately timed incubation periods and observing temperature controls where indicated. […] Falcon tube, counted and centrifuged for eight minutes at 300 g at room temperature. Supernatant is aspirated, the cell pellet resuspended and washed once in HBSS (Hank's Balanced Salt Solution) by centrifugation for eight minutes at 300 g at room temperature. The cell pellet is resuspended in HBSS to a concentration of 4×10^6 per ml, and 100 μL of cell suspension added to each well of a flat-bottomed 96-well tissue culture plate. Assay plates are incubated for 1.5 hours at 37° C., 5% CO2 to allow background AKT phosphorylation to reduce before the compound stimulation step. […] Compound concentrations at this stage are 4-times the final concentration required in the assay plate. Cells are stimulated with compound or HBSS 0.8% DMSO by direct transfer of 50 ul/well from the compound dilution plate. The assay plate containing compound-treated cells is then incubated for 30 minutes at 37° C. A standard plate layout is used for all experiments. Compound-treated cells, in addition to positive control wells (“max MIP1α”), are stimulated with 50 μL per well of 40 ng/ml MIP1α (R&D Systems catalogue number 270-LD, lyophilized stock reconstituted to 50 μg/ml with PBS 0.1% BSA). Negative control wells (“min HBSS”), are stimulated with 50 μl/well of HBSS in the absence of MIP1α. […] Cells are incubated with MIP1α for 3 minutes, at 37° C., 5% CO2. After the three minute stimulation period, the assay plate is kept ice cold at all times. Assay plates are centrifuged for 2 minutes at 300 g, 4° C. and supernatant is removed by gently inverting, and then blotting the plate on tissue. Cells are then washed by gentle addition of 150 μL/well of ice cold HBSS and centrifugation at 300 g, for 5 minutes at 4° C. Supernatant is aspirated and the plate blotted as described above. The plate is placed on ice and cells are immediately treated with 35 μL per well of ice cold lysis buffer, prepared according to the kit instructions (per assay plate, to 5 ml of Tris lysis buffer add 100 μl of 50× protease inhibitor solution and 50 μl of each 100× phosphatase inhibitor solutions I and II). Plates are incubated on ice for 20 minutes before centrifugation at 841 g for 5 minutes, 4° C. Block buffer is aspirated from the MSD plate, and the plate washed four times with 300 μl/well Tris wash buffer. 25 μL of cell lysate is then transferred from the assay plate to the washed MSD plate which is sealed and incubated at room temperature for one hour with shaking. The plate is washed four times with 300 μL per well of Tris wash buffer before addition of 25 μL per well of sulfo-tag anti-total AKT/pAKT detection antibody (60 μl of 50× antibody stock is diluted in 1 ml block buffer mixed with 2 ml wash buffer) and incubated at room temperature for one hour with shaking. The plate is washed four times with 300 μl per well of Tris wash buffer and 150 μl per well of Read buffer is added, taking care to avoid the introduction of bubbles. The plate is immediately read using an MSD SECTOR Imager 6000. Results are exported in Excel and the percentage of phosphorylated AKT is calculated using the equation: % Phosphoprotein=((2*Phospho signal)/(Phospho signal+Total signal))*100. […]

PI 3-Kinase Gamma, sequence (P48736 whole entry): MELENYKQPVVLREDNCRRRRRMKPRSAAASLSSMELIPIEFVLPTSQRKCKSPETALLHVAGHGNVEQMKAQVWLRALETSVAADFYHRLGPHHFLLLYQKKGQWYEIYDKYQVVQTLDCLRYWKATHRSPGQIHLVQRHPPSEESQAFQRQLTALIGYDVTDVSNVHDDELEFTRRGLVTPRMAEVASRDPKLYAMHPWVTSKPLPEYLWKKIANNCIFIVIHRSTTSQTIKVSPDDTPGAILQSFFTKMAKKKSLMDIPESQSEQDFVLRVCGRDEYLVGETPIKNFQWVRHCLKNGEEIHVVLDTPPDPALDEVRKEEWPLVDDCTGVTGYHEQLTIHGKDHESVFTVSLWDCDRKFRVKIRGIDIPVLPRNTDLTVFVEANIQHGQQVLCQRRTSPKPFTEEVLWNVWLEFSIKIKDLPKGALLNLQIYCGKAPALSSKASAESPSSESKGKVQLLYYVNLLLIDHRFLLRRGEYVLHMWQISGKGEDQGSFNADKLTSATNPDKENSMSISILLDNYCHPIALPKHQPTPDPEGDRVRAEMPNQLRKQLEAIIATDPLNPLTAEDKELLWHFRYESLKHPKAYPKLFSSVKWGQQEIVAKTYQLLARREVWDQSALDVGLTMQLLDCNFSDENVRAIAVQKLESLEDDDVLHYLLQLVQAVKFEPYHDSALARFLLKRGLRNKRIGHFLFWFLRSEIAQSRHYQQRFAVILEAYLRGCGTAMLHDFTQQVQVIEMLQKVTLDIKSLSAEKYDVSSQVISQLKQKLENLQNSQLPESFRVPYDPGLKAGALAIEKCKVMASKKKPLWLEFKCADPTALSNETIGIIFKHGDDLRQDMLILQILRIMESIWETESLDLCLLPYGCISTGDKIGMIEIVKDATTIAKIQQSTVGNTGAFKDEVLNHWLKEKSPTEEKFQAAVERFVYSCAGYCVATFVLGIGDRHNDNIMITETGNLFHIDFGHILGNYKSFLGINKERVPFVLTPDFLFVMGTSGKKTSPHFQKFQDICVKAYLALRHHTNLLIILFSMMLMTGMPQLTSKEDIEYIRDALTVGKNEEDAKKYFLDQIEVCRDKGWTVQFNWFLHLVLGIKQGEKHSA

| SMILES | IC50 |
| --- | --- |
| COc1ncc(-c2c(F)ccc3nc([C@@H]4C[C@H](O)CN4c4nc(N)nc(C)c4C#N)n(-c4ccccc4)c(=O)c23)s1 [Example 9, 2-Amino-4-((2S,4S)-2-(6-fluoro-5-(2-methoxythiazol-5-yl)-4-oxo-3-phenyl-3,4-dihydroquinazolin-2-yl)-4-hydroxypyrrolidin-1-yl)-6-methylpyrimidine-5-carbonitrile] | 56 nM |
| Cc1nc(N)nc(N2CCC[C@H]2c2nc3cccc(-c4cccnc4)c3c(=O)n2-c2ccccc2)c1C#N [Example 20, (S)-2-Amino-4-methyl-6-(2-(4-oxo-3-phenyl-5-(pyridin-3-yl)-3,4-dihydroquinazolin-2-yl)pyrrolidin-1-yl)pyrimidine-5-carbonitrile] | 270 nM |
| Cc1nc(N)nc(N2C[C@@H](O)C[C@H]2c2nc3cccc(-c4cncnc4)c3c(=O)n2-c2ccccc2)c1C#N [Example 26, 2-Amino-4-((2S,4S)-4-hydroxy-2-(4-oxo-3-phenyl-5-(pyrimidin-5-yl)-3,4-dihydroquinazolin-2-yl)pyrrolidin-1-yl)-6-methylpyrimidine-5-carbonitrile] | 170 nM |
| COc1ncc(-c2cccc3nc([C@@H]4CCCN4c4nc(N)nc(C)c4C#N)n(-c4ccccc4)c(=O)c23)cn1 [Example 4, (S)-2-Amino-4-(2-(5-(2-methoxypyrimidin-5-yl)-4-oxo-3-phenyl-3,4-dihydroquinazolin-2-yl)pyrrolidin-1-yl)-6-methylpyrimidine-5-carbonitrile] | 40 nM |
| Cc1nc(N)nc(N2C[C@@H](O)C[C@H]2c2nc3ccc(F)c(-c4cn(C)cn4)c3c(=O)n2-c2ccccc2)c1C#N [Example 31, 2-Amino-4-((2S,4S)-2-(6-fluoro-5-(1-methyl-1H-imidazol-4-yl)-4-oxo-3-phenyl-3,4-dihydroquinazolin-2-yl)-4-hydroxypyrrolidin-1-yl)-6-methylpyrimidine-5-carbonitrile] | 240 nM |
| Cc1nc(N)nc(N2C[C@@H](O)C[C@H]2c2nc3cccc(-c4cnn(C)c4)c3c(=O)n2-c2ccccc2)c1C#N [Example 16, 2-Amino-4-((2S,4S)-4-hydroxy-2-(5-(1-methyl-1H-pyrazol-4-yl)-4-oxo-3-phenyl-3,4-dihydroquinazolin-2-yl)pyrrolidin-1-yl)-6-methylpyrimidine-5-carbonitrile] | 55 nM |
| N#Cc1c(N)ncnc1N1CCC[C@H]1c1nc2cccc(C#CCO)c2c(=O)n1-c1ccccc1 [Example 33, (S)-4-Amino-6-(2-(5-(3-hydroxyprop-1-yn-1-yl)-4-oxo-3-phenyl-3,4-dihydroquinazolin-2-yl)pyrrolidin-1-yl)pyrimidine-5-carbonitrile] | 120 nM |
| Cn1cc(-c2c(F)ccc3nc([C@@H]4CCCN4c4ncnc(N)c4C#N)n(-c4ccccc4)c(=O)c23)cn1 [Example 5, (S)-4-Amino-6-(2-(6-fluoro-5-(1-methyl-1H-pyrazol-4-yl)-4-oxo-3-phenyl-3,4-dihydroquinazolin-2-yl)pyrrolidin-1-yl)pyrimidine-5-carbonitrile] | 220 nM |
| COc1ccc(-c2cccc3nc([C@@H]4CCCN4c4nc(N)nc(C)c4C#N)n(-c4ccccc4)c(=O)c23)cn1 [Example 21, (S)-2-Amino-4-(2-(5-(6-methoxypyridin-3-yl)-4-oxo-3-phenyl-3,4-dihydroquinazolin-2-yl)pyrrolidin-1-yl)-6-methylpyrimidine-5-carbonitrile] | 1100 nM |
| Cc1ncc(-c2cccc3nc([C@@H]4CCCN4c4nc(N)nc(C)c4C#N)n(-c4ccccc4)c(=O)c23)cn1 [Example 19, (S)-2-Amino-4-methyl-6-(2-(5-(2-methylpyrimidin-5-yl)-4-oxo-3-phenyl-3,4-dihydroquinazolin-2-yl)pyrrolidin-1-yl)pyrimidine-5-carbonitrile] | 220 nM |
| Cc1nc(N)nc(N2C[C@@H](O)C[C@H]2c2nc3cccc(-c4cnn(CCO)c4)c3c(=O)n2-c2ccccc2)c1C#N [Example 28, 2-Amino-4-((2S,4S)-4-hydroxy-2-(5-(1-(2-hydroxyethyl)-1H-pyrazol-4-yl)-4-oxo-3-phenyl-3,4-dihydroquinazolin-2-yl)pyrrolidin-1-yl)-6-methylpyrimidine-5-carbonitrile] | 120 nM |
